Consider 15 compounds from US20260274832A1, “COMPOUNDS AND THEIR USE IN TREATING CANCER” (ASTRAZENECA AB, priority 2023, published 2026).

By DC50 is commonly meant the midpoint of the concentration-degradation curve. A high value points to degradation only at high concentration. As a reminder, the Dmax is the greatest extent of degradation seen.

Assay [1] has as its target T1, AR (L702H) in LNCaP cells (Homo sapiens, UniProt P10275, L702H/T878A).
T1 construct: engineered to introduce the mutation L702H into the AR gene using CRISPR/Cas9; endogenous in cells; host or cells: LNCaP cells edited by CRISPR/Cas9 at the AR gene
The experiment in a line: LNCaP Androgen Receptor L702H Imaging Assay (LNCaP cells engineered by CRISPR/Cas9). The format is cell-based. To be noted: LNCaP cells with AR L702H mutation, 24 h incubation; for DC50: concentration giving 50% of maximum degradation of AR (L702H) per curve fit; for Dmax: LNCaP; for Dmax / LNCaP AR (L702H) Degradation Dmax: maximum degradation observed, normalized as % of positive control. The procedure, abridged:
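AR (L702H) degradation, expressed as DC50 and Dmax from curve fits normalized to a positive degrader control, was measured by high-content imaging of anti-AR immunofluorescence. The engineered LNCaP line was dosed over 12 concentrations for 24 h, 0.3% DMSO final, before PFA fixation.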

For assay [2], the target named is T2, AR (AR-full length) in LNCaP cells (Homo sapiens, UniProt P10275, T878A).
T2 construct: the prostate cancer cell line LNCaP (expressing AR-full length); endogenous in cells; host or cells: LNCaP
T2 sequence (P10275 whole entry T878A): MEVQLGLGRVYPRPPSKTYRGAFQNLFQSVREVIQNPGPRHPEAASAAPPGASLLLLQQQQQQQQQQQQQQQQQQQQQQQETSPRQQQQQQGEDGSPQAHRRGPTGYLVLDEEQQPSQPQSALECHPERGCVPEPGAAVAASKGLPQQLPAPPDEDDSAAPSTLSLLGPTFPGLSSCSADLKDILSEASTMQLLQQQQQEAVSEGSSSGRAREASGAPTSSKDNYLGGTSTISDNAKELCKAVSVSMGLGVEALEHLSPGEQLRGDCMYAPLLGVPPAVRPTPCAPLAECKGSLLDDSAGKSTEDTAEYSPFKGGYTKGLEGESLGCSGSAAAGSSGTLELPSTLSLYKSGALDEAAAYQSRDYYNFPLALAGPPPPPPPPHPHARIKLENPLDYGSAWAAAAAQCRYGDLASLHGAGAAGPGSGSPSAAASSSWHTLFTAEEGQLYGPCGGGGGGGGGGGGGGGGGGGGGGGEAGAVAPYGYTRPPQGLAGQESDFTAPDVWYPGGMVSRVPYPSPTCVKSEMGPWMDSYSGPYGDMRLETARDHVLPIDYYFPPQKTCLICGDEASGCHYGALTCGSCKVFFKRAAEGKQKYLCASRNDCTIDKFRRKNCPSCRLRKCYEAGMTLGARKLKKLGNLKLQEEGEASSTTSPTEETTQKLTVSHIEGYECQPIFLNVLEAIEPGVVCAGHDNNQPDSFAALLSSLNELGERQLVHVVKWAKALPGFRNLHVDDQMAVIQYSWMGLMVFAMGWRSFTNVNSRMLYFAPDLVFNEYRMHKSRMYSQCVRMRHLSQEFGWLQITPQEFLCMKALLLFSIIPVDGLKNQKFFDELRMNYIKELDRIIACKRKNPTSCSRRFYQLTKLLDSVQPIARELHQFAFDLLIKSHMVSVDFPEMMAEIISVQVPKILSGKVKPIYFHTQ
T2 sequence (Q96SW2 whole entry partner): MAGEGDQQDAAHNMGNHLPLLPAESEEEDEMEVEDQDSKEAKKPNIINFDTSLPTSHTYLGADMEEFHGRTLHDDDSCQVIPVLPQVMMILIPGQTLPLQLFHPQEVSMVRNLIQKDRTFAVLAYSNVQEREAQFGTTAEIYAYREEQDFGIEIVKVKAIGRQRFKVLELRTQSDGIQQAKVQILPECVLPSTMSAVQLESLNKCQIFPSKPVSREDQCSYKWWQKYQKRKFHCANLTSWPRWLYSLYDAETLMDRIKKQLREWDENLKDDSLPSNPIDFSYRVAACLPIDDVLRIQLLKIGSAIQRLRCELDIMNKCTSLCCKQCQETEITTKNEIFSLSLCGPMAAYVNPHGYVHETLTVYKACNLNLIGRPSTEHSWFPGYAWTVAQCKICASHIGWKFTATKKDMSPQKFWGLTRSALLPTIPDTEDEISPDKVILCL
The experiment in a line: LNCaP Androgen Receptor Imaging Assay (immunofluorescence of endogenous nuclear AR). Particulars: 24 h incubation; for DC50: concentration giving 50% of maximum degradation of AR per curve fit, single experiment or average of two or more; for Dmax: LNCaP; for Dmax / LNCaP AR Degradation Dmax: maximum degradation observed, normalized as % of positive control (prior art AR PROTAC at 3 μM). The format is cell-based. The procedure, abridged:
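Endogenous nuclear AR level was imaged by immunofluorescence after 24 h compound exposure (12-point dose response, 0.3% DMSO, 37° C./5% CO2) in LNCaP cells. Data were expressed as % of a 3 μM prior-art AR PROTAC control and fitted (bell fit where a hook appeared) to give DC50 and maximum degradation Dmax.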

A value given as a limit tells only on which side of the number the result lay.

T1 sequence (P10275 whole entry L702H/T878A): as the sequence (P10275 whole entry T878A) above, with L702H counted along it
T1 sequence (Q96SW2 whole entry partner): as the sequence (Q96SW2 whole entry partner) above

Regarding `Cn1c(C2CCN(CC3CCN(c4ccc(C(=O)NC5CCN(c6ccc(Cl)c7c(C#N)c[nH]c67)CC5)c(F)c4)CC3)CC2)cc2cc(F)c(N3CCC(=O)NC3=O)cc21` [Example 156, N-[1-(4-Chloro-3-cyano-1H-indol-7-yl)piperidin-4-yl]-4-[4-({4-[6-(2,4-dioxo-1,3-diazinan-1-yl)-5-fluoro-1-methyl-1H-indol-2-yl]piperidin-1-yl}methyl)piperidin-1-yl]-2-fluorobenzamide], in assay [1], half-maximal degradation (DC50) was put at 10 nM and the Dmax was 105%. In assay [2], it took 5 nM to reach half-maximal degradation (DC50) and the Dmax stood at 104%.

With `N#Cc1c[nH]c2c(N3CCC(c4ccc(N5CCC(CN6CCC(n7ccc8c(N9CCC(=O)NC9=O)cccc87)CC6)CC5)cc4)CC3)cccc12` [Example 59, 7-(4-{4-[4-({4-[4-(2,4-Dioxo-1,3-diazinan-1-yl)-1H-indol-1-yl]piperidin-1-yl}methyl)piperidin-1-yl]phenyl}piperidin-1-yl)-1H-indole-3-carbonitrile], the DC50 in assay [1] is 47 nM; in assay [2] it was 51 nM. In addition, the figures for the Dmax in assay [1] and in assay [2] were 95% and 88%, respectively.

Consider `N#Cc1n[nH]c2c(N3CCOC(c4ccc(N5CCC(CN6CCC(n7ccc8c(N9CCC(=O)NC9=O)cccc87)CC6)CC5)cc4)C3)ccc(Cl)c12` (single isomer, unassigned) [Example 120, 4-Chloro-7-[(2R*)-2-{4-[4-({4-[4-(2,4-dioxo-1,3-diazinan-1-yl)-1H-indol-1-yl]piperidin-1-yl}methyl)piperidin-1-yl]phenyl}morpholin-4-yl]-1H-indazole-3-carbonitrile], for which, in assay [1], it took 40 nM to reach half-maximal degradation (DC50) and the “LNCaP AR (L702H) Degradation Dmax” value is given as 90%. In assay [2], it took 13 nM to reach half-maximal degradation (DC50) and the “LNCaP AR Degradation Dmax” value is 101%.

For `N#Cc1c[nH]c2c(N3CCC[C@@H](c4ccc(N5CCC(CN6CCC(n7ccc8c(N9CCC(=O)NC9=O)cccc87)CC6)CC5)cc4)C3)ccc(F)c12` [Example 23, 7-[(3S)-3-{4-[4-({4-[4-(2,4-Dioxo-1,3-diazinan-1-yl)-1H-indol-1-yl]piperidin-1-yl}methyl)piperidin-1-yl]phenyl}piperidin-1-yl]-4-fluoro-1H-indole-3-carbonitrile], the figures for the 50% degradation concentration (DC50) in assay [1] and in assay [2] were 57 nM and 12 nM, respectively. Further, the results for the Dmax in assay [1] and in assay [2] were 94% and 100%, respectively.

For the compound `N#Cc1n[nH]c2c(N3CCC(NC(=O)c4ccc(N5CCC(CN6CCC(n7ccc8c(N9CCC(=O)NC9=O)cccc87)CC6)CC5)cc4F)CC3)ccc(Cl)c12` [Example 152, N-[1-(4-Chloro-3-cyano-1H-indazol-7-yl)piperidin-4-yl]-4-[4-({4-[4-(2,4-dioxo-1,3-diazinan-1-yl)-1H-indol-1-yl]piperidin-1-yl}methyl)piperidin-1-yl]-2-fluorobenzamide], the DC50 in assay [1] and in assay [2] was 2 nM each time. The Dmax was 108% in assay [1] and 105% in assay [2].

`N#Cc1c[nH]c2c(N3CCOC(c4ccc(N5CCC(CN6CCC(n7ccc8c(N9CCC(=O)NC9=O)cccc87)CC6)CC5)cc4)C3)ccc(Cl)c12` (single isomer, unassigned) [Example 118, 4-Chloro-7-[(2R*)-2-{4-[4-({4-[4-(2,4-dioxo-1,3-diazinan-1-yl)-1H-indol-1-yl]piperidin-1-yl}methyl)piperidin-1-yl]phenyl}morpholin-4-yl]-1H-indole-3-carbonitrile]: in assay [1], the DC50 was found to be 2300 nM and the “LNCaP AR (L702H) Degradation Dmax” value is 100%. In addition, in assay [2], the half-maximal degradation concentration (DC50) was determined as 24 nM and the “LNCaP AR Degradation Dmax” value is given as 92%.

As for `Cn1c(C2CCN(CC3CCN(c4ccc([C@H]5CCCN(c6ccc(Cl)c7c(C#N)c[nH]c67)C5)cc4)CC3)CC2)cc2cc(F)c(N3CCC(=O)NC3=O)cc21` [Example 136, 4-Chloro-7-[(3R)-3-{4-[4-({4-[6-(2,4-dioxo-1,3-diazinan-1-yl)-5-fluoro-1-methyl-1H-indol-2-yl]piperidin-1-yl}methyl)piperidin-1-yl]phenyl}piperidin-1-yl]-1H-indole-3-carbonitrile], the values for the DC50 in assay [1] and in assay [2] were 14 nM and 10 nM, respectively. Further, the Dmax in assay [1] was 108%; in assay [2], 104%.

In the case of `N#Cc1c[nH]c2c(N3CCC(c4ccc(N5CCO[C@H](CN6CCN(c7ccc8c(c7)CN(C7CCC(=O)NC7=O)C8=O)CC6)C5)cc4)CC3)ccc(Cl)c12` (stereo partly drawn) [Example 127, 4-Chloro-7-(4-{4-[(2R)-2-({4-[2-(2,6-dioxopiperidin-3-yl)-1-oxo-2,3-dihydro-1H-isoindol-5-yl]piperazin-1-yl}methyl)morpholin-4-yl]phenyl}piperidin-1-yl)-1H-indole-3-carbonitrile], in assay [1], it took 4 nM to reach half-maximal degradation (DC50) and the Dmax was 110%. Moreover, in assay [2], the DC50 was determined as 4 nM and the Dmax turned out to be 100%.

Consider `COc1nc(N2CCN(CC3CCN(c4ccc([C@@H]5CCCN(c6ccc(Cl)c7c(C#N)c[nH]c67)C5)cc4)CC3)CC2)cc2c1C(=O)N(C1CCC(=O)NC1=O)C2` (single isomer, unassigned) [Example 39, 4-Chloro-7-[(3S)-3-(4-{4-[(4-{2-[(3R*)-2,6-dioxopiperidin-3-yl]-4-methoxy-3-oxo-2,3-dihydro-1H-pyrrolo[3,4-c]pyridin-6-yl}piperazin-1-yl)methyl]piperidin-1-yl}phenyl)piperidin-1-yl]-1H-indole-3-carbonitrile], for which, in assay [1], the DC50 amounted to 33 nM and the Dmax was determined as 99%. For the same compound, in assay [2], the DC50 worked out at 16 nM and the Dmax was 88%.

Turning to `N#Cc1c[nH]c2c(N3CCC(NC(=O)c4ccc(N5CCC(CN6CCN(c7cc8c(cc7F)C(=O)N(C7CCC(=O)NC7=O)C8=O)CC6)CC5)cn4)CC3)ccc(Cl)c12` (stereo not shown) [Example 169, N-[1-(4-Chloro-3-cyano-1H-indol-7-yl)piperidin-4-yl]-5-[4-({4-[2-(2,6-dioxopiperidin-3-yl)-6-fluoro-1,3-dioxo-2,3-dihydro-1H-isoindol-5-yl]piperazin-1-yl}methyl)piperidin-1-yl]pyridine-2-carboxamide], in assay [1], the DC50 was determined as 23 nM and the Dmax was determined as 94%. In assay [2], half-maximal degradation (DC50) was put at 5 nM and the Dmax was 86%.

For the compound `N#Cc1c[nH]c2c(N3CCC(c4ccc(N5CCC(CN6CCN(c7ccc8c(c7)CN(C7CCC(=O)NC7=O)C8=O)CC6)CC5)cc4)CC3)ccc(F)c12` (stereo not shown) [Example 2, 7-(4-{4-[4-({4-[2-(2,6-Dioxopiperidin-3-yl)-1-oxo-2,3-dihydro-1H-isoindol-5-yl]piperazin-1-yl}methyl)piperidin-1-yl]phenyl}piperidin-1-yl)-4-fluoro-1H-indole-3-carbonitrile], in assay [1], half-maximal degradation (DC50) was put at 5 nM and the Dmax came to 101%. Besides, in assay [2], it took 6 nM to reach half-maximal degradation (DC50) and the Dmax came out at 96%.

Turning to `N#Cc1c[nH]c2c(N3CCC(c4ccc(OCCCCN5CCC(n6ccc7c(N8CCC(=O)NC8=O)cccc76)CC5)cc4)CC3)cccc12` [Example 58, 7-{4-[4-(4-{4-[4-(2,4-Dioxo-1,3-diazinan-1-yl)-1H-indol-1-yl]piperidin-1-yl}butoxy)phenyl]piperidin-1-yl}-1H-indole-3-carbonitrile], in assay [1], the DC50 was determined as 114 nM and the Dmax was 78%. In assay [2], the DC50 was determined as 13 nM and the Dmax worked out at 96%.

On to `N#Cc1c[nH]c2c(C3CCCN(c4ccc(C5CCN(CC6CCN(c7ccc8c(c7)CN(C7CCC(=O)NC7=O)C8=O)CC6)CC5)cc4)C3)ccc(Cl)c12` (single isomer, unassigned) [Example 97, 4-Chloro-7-[(3S*)-1-{4-[1-({1-[2-(2,6-dioxopiperidin-3-yl)-1-oxo-2,3-dihydro-1H-isoindol-5-yl]piperidin-4-yl}methyl)piperidin-4-yl]phenyl}piperidin-3-yl]-1H-indole-3-carbonitrile], for which the 50% degradation concentration (DC50) in assay [1] and in assay [2] was above 3000 nM each time.

On to `Cn1c(C2CCN(CC3CCN(c4ccc([C@@H]5CCCN(c6ccc(Cl)c7c(C#N)n[nH]c67)C5)cc4)CC3)CC2)cc2ccc(N3CCC(=O)NC3=O)cc21` [Example 14, 4-Chloro-7-[(3S)-3-{4-[4-({4-[6-(2,4-dioxo-1,3-diazinan-1-yl)-1-methyl-1H-indol-2-yl]piperidin-1-yl}methyl)piperidin-1-yl]phenyl}piperidin-1-yl]-1H-indazole-3-carbonitrile], for which, in assay [1], the DC50 worked out at 9 nM and the Dmax was found to be 112%. In assay [2], the DC50 stood at 6 nM and the Dmax was found to be 107%.

In the case of `Cn1c(=O)n(C2CCC(=O)NC2=O)c2cccc(CN3CCN(CC4CCN(c5ccc([C@@H]6CCCN(c7ccc(F)c8c(C#N)c[nH]c78)C6)cc5)CC4)CC3)c21` (stereo partly shown) [Example 74], in assay [1], the DC50 amounted to 21 nM and the Dmax came to 70%. In assay [2], it took 8 nM to reach half-maximal degradation (DC50) and the Dmax came out at 93%.
